Measurements: patent publication US20240302379A1, “METHODS FOR IDENTIFYING AND MONITORING INTERACTIONS OF PROTEIN WITH LIGAND” (Agency for Science, Technology and Research, priority 2020, published 2024)
“Also recorded” adds a separate entry of the source.

Legend:
DHFR-HiBiT = target: T1, DHFR-HiBiT (Homo sapiens, UniProt P00374); assay: UCEP-Screen in HEK293 DHFR-HiBiT reporter cells (bioluminescence); assay type: binding; conditions: 20 μM, 10 minutes
T1 construct: expressed in transfected cells; host or cells: Flp-In T-Rex HEK293
T1 sequence (P00374 1-187): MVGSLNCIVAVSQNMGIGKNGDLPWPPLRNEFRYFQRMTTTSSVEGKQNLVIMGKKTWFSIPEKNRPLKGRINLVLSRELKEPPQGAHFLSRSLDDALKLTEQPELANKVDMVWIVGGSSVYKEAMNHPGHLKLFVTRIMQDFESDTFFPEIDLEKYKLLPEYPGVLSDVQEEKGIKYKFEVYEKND
Method: UCEP conditions such as denaturant concentration and dilution factor should be optimized for each target before performing any HTS. Here, Flp-In T-Rex cells were used for assay development. Cells were seeded into the 96-well clear bottom white microplate in growth medium and the expression of HiBiT-tagged protein was induced with tetracycline. Cells are treated with chemical of interest for specific duration, before incubation in PBS containing different concentrations of urea. Urea was then diluted with PBS. HiBiT lytic detection buffer containing LgBiT and substrate was then added. Bioluminescence was then measured.

HER2-HiBIT = target: T2, HER2-HiBIT (Homo sapiens, UniProt P04626); assay: UCEP in HER2-HiBIT reporter cells with 1% CHAPS (bioluminescence); assay type: binding; conditions: 3M to 5M urea
T2 construct: expressed in transfected cells; host or cells: reporter cells
From the text: In the Flp-In T-Rex system, modified pENTR1A plasmids, entry vectors, are used to clone protein of interest. pENTR1A plasmids are modified to include thirty-three nucleotide sequences of HiBiT for tagging protein of interest at either N- or C terminus. A HiBiT-tagged protein of interest is transferred to one of gateway destination vectors, pFRT/TO/DEST or pEF5/FRT/V5-DEST, via gateway LR reaction. Flp-In T-Rex HEK293 cells are transfected with the final destination vector that include HiBiT-tagged gene of interest and pOG44 vector expressing Flp recombinase. Cells are selected with Hygromycin and Blasticidin to remove untransformed cells. In the CRISPR system, the ribonucleoprotein complex including Cas9, crRNA, tracrRNA is formed in vitro. Cells are electroporated to deliver the Cas9 ribonucleoprotein complex along with a single-stranded donor oligonucleotide. Next day, cells are sorted as a single cell into a transparent 96-well tissue culture microplate and incubated until they became confluent.
UCEP conditions such as denaturant concentration and dilution factor should be optimized for each target before performing any HTS. Here, Flp-In T-Rex cells were used for assay development. Cells were seeded into the 96-well clear bottom white microplate in growth medium and the expression of HiBiT-tagged protein was induced with tetracycline. […] Bioluminescence was then measured. […]

K562 living cells = assay: UCEP-ID MR experiment (proteome-wide target deconvolution by quantitative LC-MS/MS); conditions: K562, 10 μM, 10 minutes

T2 sequence (P04626 23-1255): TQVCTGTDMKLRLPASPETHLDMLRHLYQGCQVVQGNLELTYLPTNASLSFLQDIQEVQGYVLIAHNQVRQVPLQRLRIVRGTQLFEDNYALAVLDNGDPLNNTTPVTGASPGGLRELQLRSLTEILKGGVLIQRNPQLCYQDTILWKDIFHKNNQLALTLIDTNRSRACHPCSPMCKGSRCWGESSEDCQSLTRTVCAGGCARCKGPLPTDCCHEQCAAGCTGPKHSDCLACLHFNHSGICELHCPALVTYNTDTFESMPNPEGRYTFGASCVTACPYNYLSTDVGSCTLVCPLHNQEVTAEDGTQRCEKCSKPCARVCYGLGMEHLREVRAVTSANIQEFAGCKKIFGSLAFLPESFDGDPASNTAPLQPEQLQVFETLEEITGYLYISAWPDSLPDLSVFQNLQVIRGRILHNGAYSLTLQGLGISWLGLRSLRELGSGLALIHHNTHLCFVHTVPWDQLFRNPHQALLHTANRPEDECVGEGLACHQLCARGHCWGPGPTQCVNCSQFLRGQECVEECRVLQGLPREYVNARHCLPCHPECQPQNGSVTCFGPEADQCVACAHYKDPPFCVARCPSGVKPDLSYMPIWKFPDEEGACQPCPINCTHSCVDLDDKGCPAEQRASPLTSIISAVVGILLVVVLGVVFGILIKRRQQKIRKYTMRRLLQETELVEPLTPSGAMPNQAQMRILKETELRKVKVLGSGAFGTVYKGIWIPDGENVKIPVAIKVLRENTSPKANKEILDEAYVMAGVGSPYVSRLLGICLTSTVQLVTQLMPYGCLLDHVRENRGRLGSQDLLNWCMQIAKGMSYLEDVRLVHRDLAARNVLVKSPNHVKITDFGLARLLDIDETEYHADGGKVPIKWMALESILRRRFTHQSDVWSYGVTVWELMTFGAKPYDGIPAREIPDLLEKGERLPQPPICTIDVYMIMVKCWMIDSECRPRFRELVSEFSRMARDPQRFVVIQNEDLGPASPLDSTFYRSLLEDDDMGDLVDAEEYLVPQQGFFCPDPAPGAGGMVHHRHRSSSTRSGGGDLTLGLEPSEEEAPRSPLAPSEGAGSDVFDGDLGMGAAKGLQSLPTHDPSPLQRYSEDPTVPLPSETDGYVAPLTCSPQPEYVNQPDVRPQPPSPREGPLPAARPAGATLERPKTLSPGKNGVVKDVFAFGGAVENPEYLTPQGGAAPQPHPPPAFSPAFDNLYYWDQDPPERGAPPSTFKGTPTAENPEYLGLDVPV

Compound | DHFR-HiBiT protein stabilization upon UCEP (DHFR-HiBiT) | further results
CNC(=O)c1ccc(N2C(=S)N(c3ccc(C#N)c(C(F)(F)F)c3)C(=O)C2(C)C)cc1F [Enzalutamide] | did not significantly change | –
CN[C@@H]1C[C@H]2O[C@@](C)([C@@H]1OC)n1c3ccccc3c3c4c(c5c6ccccc6n2c5c31)C(=O)NC4 [Staurosporine] | did not significantly change | –
Cc1cc(Nc2ncnc3ccc(NC4=NC(C)(C)CO4)cc23)ccc1Oc1ccn2ncnc2c1 [Tucatinib] | – | Stabilization of HER2-HiBIT (fold change of bioluminescence vs control) (HER2-HiBIT): maximum stabilization of HER2 at 3M urea; also recorded: increased stability
CN(Cc1cnc2nc(N)nc(N)c2n1)c1ccc(C(=O)N[C@@H](CCC(=O)O)C(=O)O)cc1 [MTX, methotrexate] | – | Binding targets identified by UCEP-ID (K562 living cells): DHFR
